# Reference: ChEMBL document CHEMBL1201862, “PubChem BioAssay data set” (2004)
# Activity calls are given as the source filed them.
# How the values were obtained:
# [1] = HEp-2 cell cytotoxicity, dose response, cytotoxicity control for RSV inhibitor project, HTS (AID 2410); assay type: functional; details: human respiratory syncytial virus
# [2] = target: Luciferin 4-monooxygenase (Photinus pyralis, UniProt P08659); test: firefly luciferase enzyme inhibitors, dose response, biochemical, luminescence (AID 1891)
# Luciferin 4-monooxygenase, sequence (P08659 whole entry): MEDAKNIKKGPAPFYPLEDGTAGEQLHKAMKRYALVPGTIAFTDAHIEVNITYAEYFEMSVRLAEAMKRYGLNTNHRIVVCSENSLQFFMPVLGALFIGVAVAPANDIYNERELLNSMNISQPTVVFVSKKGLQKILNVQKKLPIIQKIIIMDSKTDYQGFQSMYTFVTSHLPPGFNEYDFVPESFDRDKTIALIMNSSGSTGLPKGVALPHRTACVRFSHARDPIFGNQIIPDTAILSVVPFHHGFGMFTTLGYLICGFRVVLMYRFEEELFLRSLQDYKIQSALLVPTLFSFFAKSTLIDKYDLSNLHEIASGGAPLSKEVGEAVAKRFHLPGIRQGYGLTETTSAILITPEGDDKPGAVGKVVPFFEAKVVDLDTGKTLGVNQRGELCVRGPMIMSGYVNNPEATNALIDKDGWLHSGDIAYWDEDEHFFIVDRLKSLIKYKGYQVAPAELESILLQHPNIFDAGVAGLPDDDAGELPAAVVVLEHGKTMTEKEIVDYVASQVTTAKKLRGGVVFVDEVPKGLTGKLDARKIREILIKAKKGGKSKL
# [3] = Luminescence Cell-Based Dose Confirmation HTS to Identify Inhibitors of Platelet Dense Granule Release. [Related pubchem assays: 1663 (Primary HTS), 1678 (Summary of Project)]; assay type: functional
# [4] = Luminescence Cell-Based Dose Retest to Confirm Inhibitors of Cancer Stem Cells. [Related pubchem assays (depositor defined):AID2717, AID2721]; assay type: functional; details: Homo sapiens
# [5] = target: T1, Polyadenylate-binding protein 1 (Homo sapiens, UniProt P11940); test: PABP1 MLLE–PAM2 interaction inhibitors, dose response, miRNA deadenylation inhibitor project, biochemical, fluorescence polarization, Cy5-PAM2 peptide, secondary (AID 602260); assay type: functional; details: read-out: IC50_Mean
# T1 sequence (P11940 whole entry): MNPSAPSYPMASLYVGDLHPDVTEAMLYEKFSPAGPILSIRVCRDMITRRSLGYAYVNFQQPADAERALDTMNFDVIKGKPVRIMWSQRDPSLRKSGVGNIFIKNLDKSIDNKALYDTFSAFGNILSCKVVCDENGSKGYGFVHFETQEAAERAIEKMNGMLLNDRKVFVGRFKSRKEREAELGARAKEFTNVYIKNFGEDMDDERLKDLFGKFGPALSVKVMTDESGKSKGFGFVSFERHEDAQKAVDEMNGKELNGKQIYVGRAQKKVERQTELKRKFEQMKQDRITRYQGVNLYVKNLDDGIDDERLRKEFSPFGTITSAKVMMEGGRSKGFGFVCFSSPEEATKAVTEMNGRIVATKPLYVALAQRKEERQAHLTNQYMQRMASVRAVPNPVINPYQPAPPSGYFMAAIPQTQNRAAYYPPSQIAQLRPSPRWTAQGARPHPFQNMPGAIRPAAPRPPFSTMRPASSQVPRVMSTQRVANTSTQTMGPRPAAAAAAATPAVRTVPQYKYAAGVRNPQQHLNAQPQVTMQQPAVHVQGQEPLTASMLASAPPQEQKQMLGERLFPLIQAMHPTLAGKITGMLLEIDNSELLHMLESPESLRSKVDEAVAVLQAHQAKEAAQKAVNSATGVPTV
# [6] = target: T1, Polyadenylate-binding protein 1; test: PABP1 MLLE–PAM2 binding inhibitor potency, dose response, biochemical, fluorescence polarization, FITC-PAM2 peptide (AID 602259); assay type: functional; details: read-out: IC50_Mean
# [7] = growth suppression of PTEN-null colon cells, dose response, cell-based, HCT116 PTEN knockout (AID 1047); assay type: functional;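 further: HCT116 colon tumor cells with PTEN knocked out; cells exposed to compound for 60 hours before readout; potency for loss of cell viability measured by luminescence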
# [8] = growth suppression of beta-catenin-knockout colon cells, dose response, cell-based, HCT116, human colon tumor (AID 1045); assay type: functional;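 further: HCT116 colon tumor cells with beta catenin knocked out; cells exposed to compound for 60 hours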
# Nonstructural protein 1 = Nonstructural protein 1 (Influenza A virus, UniProt Q194T2); assay type: functional, Influenza A virus (A/California/07/2009(H1N1))
# Nonstructural protein 1, sequence (Q194T2 whole entry): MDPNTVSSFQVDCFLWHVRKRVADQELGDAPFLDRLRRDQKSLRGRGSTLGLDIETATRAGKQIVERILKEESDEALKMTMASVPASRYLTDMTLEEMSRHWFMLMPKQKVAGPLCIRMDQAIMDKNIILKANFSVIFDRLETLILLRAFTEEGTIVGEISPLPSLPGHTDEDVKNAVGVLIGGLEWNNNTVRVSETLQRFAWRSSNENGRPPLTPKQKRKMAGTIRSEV
# [9] = target: T2, Ubiquitin-conjugating enzyme E2 N (Homo sapiens, UniProt P61088); assay type: functional;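 further: Dose-response confirmation in a TR-FRET assay detecting UBC13-driven polyubiquitin chain formation, inhibition measured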
# T2 sequence (P61088 whole entry): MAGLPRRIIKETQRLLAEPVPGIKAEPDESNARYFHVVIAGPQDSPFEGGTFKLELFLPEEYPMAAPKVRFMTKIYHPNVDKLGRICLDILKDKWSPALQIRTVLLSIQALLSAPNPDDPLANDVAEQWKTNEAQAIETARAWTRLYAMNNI
# INS1 = test: beta cell apoptosis inhibitors, cytokine rescue, dose response, luminescence, retest (AID 449756); assay type: functional, cell-based; details: Rattus norvegicus;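 further: cell death triggered by IL-1 beta plus TNF-alpha plus IFN-gamma mixture; protective hits raise ATP signal compared with cytokine alone wells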
# [10] = Shn3 3'UTR reporter inhibitors, dose response, cell-based, Clone20 osteoblasts, firefly luciferase, cherry-picked (AID 624132); assay type: functional;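 further: firefly luciferase luminescence from reporter carrying the Shn3 3'UTR in osteoblasts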
# [11] = HepG2 cell cytotoxicity, dose response, cytotoxicity control for Shn3 inhibitor project, CellTiter-Glo, cherry-picked (AID 624134); assay type: functional, cell-based
# [12] = control 3'UTR Renilla luciferase suppression, dose response, counter-screen for Shn3 inhibitor project, cell-based, Clone20-Shn3RL, cherry-picked (AID 624133); assay type: functional
# Large T antigen = Large T antigen (Simian virus 40, UniProt P03070); assay type: functional, Betapolyomavirus macacae;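 further: Confirmatory-stage PubChem screen for compounds that inhibit SV40 T antigen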
# Large T antigen, sequence (P03070 whole entry): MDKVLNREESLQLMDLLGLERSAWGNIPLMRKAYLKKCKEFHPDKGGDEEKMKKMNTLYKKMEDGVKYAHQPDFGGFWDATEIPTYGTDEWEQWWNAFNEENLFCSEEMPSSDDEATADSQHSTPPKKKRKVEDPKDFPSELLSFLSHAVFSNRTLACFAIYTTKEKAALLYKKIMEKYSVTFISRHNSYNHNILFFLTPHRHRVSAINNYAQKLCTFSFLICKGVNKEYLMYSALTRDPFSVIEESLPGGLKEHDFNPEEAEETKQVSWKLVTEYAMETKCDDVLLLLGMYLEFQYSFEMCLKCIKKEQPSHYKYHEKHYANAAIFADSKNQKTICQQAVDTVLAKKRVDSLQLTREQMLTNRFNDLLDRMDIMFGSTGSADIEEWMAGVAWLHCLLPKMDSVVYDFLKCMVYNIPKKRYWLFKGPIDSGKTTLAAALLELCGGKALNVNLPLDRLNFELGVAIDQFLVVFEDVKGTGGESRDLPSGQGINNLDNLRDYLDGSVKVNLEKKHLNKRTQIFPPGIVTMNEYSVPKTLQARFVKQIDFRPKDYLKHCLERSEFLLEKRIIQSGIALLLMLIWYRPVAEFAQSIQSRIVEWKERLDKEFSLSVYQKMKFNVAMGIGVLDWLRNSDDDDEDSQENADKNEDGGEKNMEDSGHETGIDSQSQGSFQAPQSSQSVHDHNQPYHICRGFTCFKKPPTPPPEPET
# [13] = inhibitors of intracellular T. cruzi replication, confirmation, NIH3T3 host cells, beta-gal luminescence (AID 2044); assay type: functional, cell-based;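 further: intracellular parasites grown in NIH/3T3 mouse fibroblasts as host cells; luminescent beta-galactosidase reporter signal from transgenic T. cruzi replicating inside host cells; inhibitors lower the luminescence signal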
# [14] = cytotoxicity toward NIH3T3 fibroblasts, dose response, counter-screen, cell-based, ATP luminescence, mouse fibroblasts (AID 2010); assay type: functional;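 further: cells exposed to compound for about 90 hours before reading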
# [15] = target: T3, Heat shock factor protein 1 (Mus musculus, UniProt P38532); test: HSF1 potentiators in luciferase reporter cells, confirmation, cell-based, NIH3T3, luminescence, dose retest (AID 435004); assay type: functional;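 further: stress induced by proteasome inhibitor MG132 added 30 min after compound; luciferase reporter driven by HSF1 response element in NIH3T3 cells; actives raise luminescence as potentiators of the MG132 stress response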
# T3 sequence (P38532 whole entry): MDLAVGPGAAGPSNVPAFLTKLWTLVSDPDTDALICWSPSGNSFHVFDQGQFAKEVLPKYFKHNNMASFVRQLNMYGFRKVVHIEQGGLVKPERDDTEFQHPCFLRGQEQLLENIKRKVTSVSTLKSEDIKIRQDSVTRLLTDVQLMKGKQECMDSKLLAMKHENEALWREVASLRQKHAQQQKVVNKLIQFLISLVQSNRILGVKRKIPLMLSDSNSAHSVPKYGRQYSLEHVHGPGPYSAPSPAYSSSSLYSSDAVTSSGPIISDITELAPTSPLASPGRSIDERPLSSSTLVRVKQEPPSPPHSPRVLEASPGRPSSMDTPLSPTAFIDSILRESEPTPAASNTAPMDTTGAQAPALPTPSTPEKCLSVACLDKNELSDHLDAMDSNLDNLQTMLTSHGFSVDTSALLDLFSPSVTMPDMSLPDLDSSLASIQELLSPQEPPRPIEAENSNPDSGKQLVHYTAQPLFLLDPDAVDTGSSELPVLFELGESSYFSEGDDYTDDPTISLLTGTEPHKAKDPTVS
# [16] = Luminescence Cell-Based Dose Confirmation HTS to Identify Activators of 5'UTR Stem-Loop Driven Alpha-Synuclein mRNA Translation in H4 Neuroglioblastoma Cells. [Related pubchem assays: 1829 (Project Summary), 1814 (Primary HTS)]; assay type: functional
# [17] = Luminescence Cell-Based Dose Response HTS to Identify Activators of Luciferase Translation or Activity in H4 […] Cells. [Related pubchem assays: 1829 (Project Summary), 1814 (Primary HTS)]; assay type: functional
# H4 = test: Luminescence Cell-Based Dose Response HTS to Identify Activators of 5'UTR Stem-Loop Driven Prion Protein mRNA Translation in H4 Neuroglioblastoma Cells. [Related pubchem assays: 1829 (Project Summary), 1814 (Primary HTS)]; assay type: functional; details: Homo sapiens
# Cytochrome P450 2D6 = Cytochrome P450 2D6 (Homo sapiens, UniProt P10635);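 further: CYP2D6 member of a cytochrome P450 panel assay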
# Cytochrome P450 2D6, sequence (P10635 whole entry): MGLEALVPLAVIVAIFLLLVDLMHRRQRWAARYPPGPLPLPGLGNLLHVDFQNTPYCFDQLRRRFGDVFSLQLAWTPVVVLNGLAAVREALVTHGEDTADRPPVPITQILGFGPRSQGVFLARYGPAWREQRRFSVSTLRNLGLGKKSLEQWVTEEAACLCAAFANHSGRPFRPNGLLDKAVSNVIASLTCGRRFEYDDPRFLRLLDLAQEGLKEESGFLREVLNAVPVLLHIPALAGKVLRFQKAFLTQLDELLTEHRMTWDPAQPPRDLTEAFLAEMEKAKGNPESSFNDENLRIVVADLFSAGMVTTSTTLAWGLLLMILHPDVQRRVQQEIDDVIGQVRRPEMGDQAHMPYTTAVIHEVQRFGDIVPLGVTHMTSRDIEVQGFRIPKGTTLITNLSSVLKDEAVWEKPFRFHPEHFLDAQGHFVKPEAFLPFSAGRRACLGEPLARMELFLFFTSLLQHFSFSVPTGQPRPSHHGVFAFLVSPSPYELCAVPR
# Cytochrome P450 2C9 = Cytochrome P450 2C9 (Homo sapiens, UniProt P11712)
# Cytochrome P450 2C9, sequence (P11712 whole entry, the tested form may be a part): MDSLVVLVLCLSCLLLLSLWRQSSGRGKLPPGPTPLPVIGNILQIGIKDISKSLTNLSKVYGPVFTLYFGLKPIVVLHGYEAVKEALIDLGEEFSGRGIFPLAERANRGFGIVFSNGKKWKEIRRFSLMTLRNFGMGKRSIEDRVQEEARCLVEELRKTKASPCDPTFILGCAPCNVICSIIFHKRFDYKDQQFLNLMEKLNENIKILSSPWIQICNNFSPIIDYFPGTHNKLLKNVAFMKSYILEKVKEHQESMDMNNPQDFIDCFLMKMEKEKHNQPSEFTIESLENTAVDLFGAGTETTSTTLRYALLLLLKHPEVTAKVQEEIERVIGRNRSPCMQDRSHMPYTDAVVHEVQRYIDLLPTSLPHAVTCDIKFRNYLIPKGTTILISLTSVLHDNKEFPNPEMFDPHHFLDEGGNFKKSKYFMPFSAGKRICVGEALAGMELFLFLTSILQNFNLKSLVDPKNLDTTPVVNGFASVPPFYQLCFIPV
# [18] = inhibitors of HIV Env-driven cell fusion, dose response, cherry-pick (AID 652057); assay type: functional, cell-based
# H9c2 = test: cells; assay type: functional, cell-based; details: Rattus norvegicus, H9c2, Myocardium;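 further: confirmatory concentration-response retest of ultra-high-throughput screening hits for modulation of myocardial damage; cell death induced by hydrogen peroxide oxidative stress; compound pretreatment for 60 min then peroxide exposure for 2 h; potency is for protecting the cells against peroxide damage rather than for killing them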
smiles,measurement,setting,value
Oc1ccccc1N1CCN(c2ncnc3sc(-c4ccccc4)cc23)CC1,CC50,[1],14.2 µM (active)
same,EC50,[2],> 112 µM (not active)
same,EC50,[3],> 112 µM (not active)
same,AC50,[4],3.87 µM (active)
COc1cc(NC(S)=Nc2ccc(OC(F)F)cc2)cc(OC)c1,IC50,[5],> 66 µM (inactive)
same,IC50,[6],> 66 µM (inactive)
O=C(O)CSc1c2ccccc2cc2ccccc12,IC50,[5],> 66 µM (inactive)
same,IC50,[6],> 66 µM (inactive)
O=C(CNCCC1=CCCCC1)Nc1ccc(N2CCCCCC2)cc1,EC50,[7],15.3 µM (active)
same,EC50,[8],12.3 µM (active)
same,IC50,Nonstructural protein 1,13.8 µM (active)
NC(=O)c1ccsc1NC(=O)CSc1nc2ccccc2c(=O)n1CCCO,IC50,[5],> 66 µM (inactive)
same,IC50,[6],> 66 µM (inactive)
O=C(O)C1C2C=CC(C2)C1C(=O)NCc1ccco1 (configuration not stated),EC50,[2],> 112 µM (not active)
same,EC50,[3],> 112 µM (not active)
COC(=O)c1sccc1N=C(S)Nc1cc(C)cc(C)c1,IC50,[5],> 66 µM (inactive)
same,IC50,[6],> 66 µM (inactive)
CCOC(=O)c1ccc(N2C(=O)CC(Sc3ncccn3)C2=O)cc1 (configuration not stated),IC50,[5],> 66 µM (inactive)
same,IC50,[6],> 66 µM (inactive)
CCOc1cccc2sc(N(CCCN(C)C)C(=O)c3ccc(S(=O)(=O)N(CC)Cc4ccccc4)cc3)nc12,CC50,[1],27.7 µM (active)
same,IC50,[9],> 20 µM (inactive)
O=C(NCCSc1c[nH]c2ccccc12)c1c(F)cccc1F,EC50,[2],> 112 µM (not active)
same,EC50,[3],> 112 µM (not active)
CC(=O)c1ccc(NC(=O)c2cc[nH]n2)cc1,EC50,[2],31.4 µM (active)
same,EC50,[3],7.07 µM (active)
COn1c(C)c(C(C)=O)c2c3nonc3ccc21,EC50,[2],> 112 µM (not active)
same,EC50,[3],> 112 µM (not active)
O=C(CSc1ccc(-c2ccncc2)nn1)c1ccccc1,IC50,[5],> 66 µM (inactive)
same,IC50,[6],> 66 µM (inactive)
Cc1ccccc1-c1nc(CS(=O)(=O)CC(=O)N2CCc3ccccc32)c(C)o1,EC50,[2],> 112 µM (not active)
same,EC50,[3],> 112 µM (not active)
N#Cc1c(O)nc(S)nc1-c1cccc(Cl)c1,IC50,[5],> 66 µM (inactive)
same,IC50,[6],> 66 µM (inactive)
CCCc1ccc(Oc2cc(N3CCOCC3)nc(-c3ccccc3)n2)cc1,EC50,[2],> 112 µM (not active)
same,EC50,[3],> 112 µM (not active)
CCn1c(Cc2cccn2C)nnc1SCC(=O)c1ccc(C)cc1,EC50,[2],> 112 µM (not active)
same,EC50,[3],> 112 µM (not active)
CCSc1nc(N2CCCCC2)c2c(c1C#N)CCCC2,IC50,[9],> 20 µM (inactive)
COc1ccc(/C=C(/NC(=O)c2ccco2)C(=O)N2CCCCCC2)cc1OC,EC50,[2],> 112 µM (not active)
same,EC50,[3],> 112 µM (not active)
Cc1ncc(CN2CCC(N3CCC(C(=O)N4CCCC4)CC3)CC2)s1,EC50,[2],> 112 µM (not active)
same,EC50,[3],> 112 µM (not active)
NCCCC[C@@H]1NC(=O)c2cc([N+](=O)[O-])cc(I)c2SC[C@@H](C(N)=O)NC(=O)[C@H](Cc2ccc(O)cc2)NC1=O,IC50,[9],> 20 µM (inactive)
COc1ccc(C(=O)CN2CCN(S(=O)(=O)c3cccc([N+](=O)[O-])c3)CC2)cc1OC,IC50,[5],> 66 µM (inactive)
same,IC50,[6],> 66 µM (inactive)
Cc1c(N2C(=O)S/C(=C3\C(=O)Nc4ccccc43)C2=O)c(=O)n(-c2ccccc2)n1C,IC50,[5],> 66 µM (inactive)
same,IC50,[6],> 66 µM (inactive)
Cc1ccc(C(=O)Nc2nc(-c3ccccn3)cs2)cc1S(=O)(=O)N1CCOCC1,IC50,Nonstructural protein 1,7.81 µM (active)
same,AC50,INS1,1.36 µM (active)
same,AC50,[10],838 nM (active)
same,AC50,[11],> 70 µM (inactive)
same,AC50,[12],976 nM (active)
Cn1c(C(=O)NCCCN2CCN(c3cccc(Cl)c3)CC2)cc2c(=O)n(C)c3ccccc3c21,IC50,[9],> 20 µM (inactive)
O=C(CSC1=NS(=O)(=O)c2ccccc21)Nc1ccccc1,IC50,Large T antigen,12.2 µM (active)
same,IC50,[9],> 20 µM (inactive)
COc1ccc(-c2csc(CCn3nc(C)cc3C)n2)cc1OC,EC50,[2],> 112 µM (not active)
same,EC50,[3],> 112 µM (not active)
COc1ccc(CCNCc2cc(C)n(-c3ccc(OC)cc3)c2C)cc1,EC50,[13],1.85 µM (active)
same,EC50,[14],> 60 µM (not active)
same,IC50,Nonstructural protein 1,44.7 µM (active)
same,EC50,[15],> 260 µM (inactive)
COc1ccc(N=NC2C(=O)N(c3ccccc3)N=C2C)cc1 (configuration not stated),IC50,Nonstructural protein 1,27.1 µM (active)
CCC(=O)NCCc1nc2ccccc2n1Cc1ccc(C)cc1,EC50,[2],> 112 µM (not active)
same,EC50,[3],> 112 µM (not active)
CCN(CC)CCNC(=O)c1ccc(NC(=O)/C=C/c2ccc3ccccc3n2)cc1,IC50,Nonstructural protein 1,> 100 µM (active)
COC(=O)C1=C(NC(=O)c2ccc(C)c(C)c2)CCS1,EC50,[16],> 120 µM (not active)
same,EC50,[17],13.3 µM (active)
same,EC50,H4,19 µM (active)
same,IC50,[5],> 66 µM (inactive)
same,IC50,[6],> 66 µM (inactive)
same,AC50,Cytochrome P450 2D6,31.6 µM (inconclusive)
same,AC50,Cytochrome P450 2C9,14.1 µM (inconclusive)
CCC(C)(C)NC(=O)CN(C(=O)c1snc(C(N)=O)c1N)c1ccc2nc(C)sc2c1,IC50,[9],> 20 µM (inactive)
COC(=O)C1=C(C)N(Cc2ccccc2)C(NCCc2c[nH]c3ccccc23)=N[C@H]1c1cccc(F)c1,AC50,[4],6.45 µM (active)
same,IC50,[9],> 20 µM (inactive)
CC1(C(=O)NCc2ccc3c(c2)OCO3)CCN1Cc1csc2ccccc12 (configuration not stated),AC50,[18],43 µM (active)
CCOc1ccccc1C(=O)N/N=C/c1cccc2cccnc12,IC50,Nonstructural protein 1,32.3 µM (active)
same,IC50,H9c2,12.4 µM (active)
CC=CCn1c(SCc2ccccc2)nc2c1c(=O)[nH]c(=O)n2C,IC50,[5],> 66 µM (inactive)
same,IC50,[6],> 66 µM (inactive)
C[C@H]1CN([C@@H](C)CO)C(=O)Cc2cc(N(C)C)ccc2O[C@H]1CN(C)Cc1ccc(Cl)c(Cl)c1,AC50,[18],40.2 µM (active)
Cc1c(NC(=S)N/N=C\c2ccccc2O)c(=O)n(-c2ccccc2)n1C,IC50,Nonstructural protein 1,6.13 µM (active)
